These results are taken from ChEMBL document CHEMBL1138473, “NMR and molecular dynamics study of the binding mode of naphthalene-N-sulfonyl-D-glutamic acid derivatives: novel MurD ligase inhibitors” (J Med Chem, 2009).

Molecules are shown by their SMILES.

This assay in a line: Inhibition of Escherichia coli BL21-A1 MurD.
One may read the IC50 as the concentration at which inhibition is half-maximal. On to `CCCCOc1ccc2cc(S(=O)(=O)N[C@H](CCC(=O)O)C(=O)O)ccc2c1`, for which the IC50 turned out to be 280 µM.

For `O=C(O)CC[C@@H](NS(=O)(=O)c1ccc2cc(OCC(=O)O)ccc2c1)C(=O)O`, the IC50 stood at 630 µM.

`CCCCOc1ccc2ccc(S(=O)(=O)N[C@H](CCC(=O)O)C(=O)O)cc2c1` gave an IC50 of 180 µM.

For `CCOC(=O)COc1ccc2cc(S(=O)(=O)N[C@H](CCC(=O)O)C(=O)O)ccc2c1`, the IC50 was 192 µM.

`O=C(O)CC[C@@H](NS(=O)(=O)c1ccc2cc(OCCCc3ccccc3)ccc2c1)C(=O)O` yielded an IC50 of 132 µM.

`O=C(O)CC[C@@H](NS(=O)(=O)c1ccc2cc(OC3CCCC3)ccc2c1)C(=O)O` had an IC50 of 400 µM.

The compound `O=C(O)CC[C@@H](NS(=O)(=O)c1ccc2cc(OCc3ccccc3)ccc2c1)C(=O)O` had an IC50 of 239 µM.

On to `CCCCOc1ccc2cc(S(=O)(=O)N[C@@H](CCC(=O)O)C(=O)O)ccc2c1`, for which the IC50 is 710 µM.

`O=C(O)CC[C@@H](NS(=O)(=O)c1ccc2ccccc2c1)C(=O)O` showed an IC50 of 810 µM.
